Measured values published in publication PMC12145446, “Development of an AI model for DILI-level prediction using liver organoid brightfield images” (Communications Biology, 2025).
Values joined by “and” are separate entries in the source; they are usually repeats but may differ in a detail not shown here. Identical values can stand only once. “Also recorded” adds a separate entry of the source.

Experiments:
[1] = cited from earlier work; for Label section / Severity class: DILIrank; for Label section: FDA drug label section; for DILIrank: FDA DILIrank category based on clinical data
HepG2 spheroids [2] = assay: ALB secretion (Human Albumin ELISA) in the DILI toxicity test on HepG2 spheroids; assay type: cell-based; conditions: 10*Cmax, end of Day 3 (72 h), individual replicates n = 3, unit from Fig. S3 legend
Experimental: (§1) The HepG2 cells were donated by Avatarget Co., Ltd (Suzhou, China). The HepG2 cells were cultured in DMEM (Gibco, 10567014) containing 10% fetal bovine serum (GIBCO, A3161001C), and 1×penicillin/streptomycin (Gibco, 15140148). HepG2 cells (70–80% cell confluency) were washed twice in sterile PBS and then dissociated with 1 mL 0.25% EDTA-Trypsin. Using 3×volume of the complete medium neutralized with reagent above, count cells and ensure 10,000 cells/well. The desired volume of cell suspension was inoculated into the 200 μL/well of ultra-low attachment microplate (Corning, 7007). The plate was centrifuged at 1500 rpm for 10 min and then incubated in an incubator at 37 °C in 5% CO2 for 4 days. The medium is changed every other day at a 1:1 ratio.
(§2) The peak serum concentration (Cmax) can intuitively reflect the actual presence level of a drug in the body’s circulatory system. Therefore, we used 1*Cmax as a reference for the drug dosage to better approximate the in vivo conditions. On this basis, we selected 10*Cmax as the reference concentration, taking into account the coefficient of variation in toxicology (individual variability: tenfold). […] Each drug was tested in triplicate. Plates were dosed with the drug for 72 h in each cycle (referred to as Day 0 through Day 3). […] At the end of day 3, the supernatant from each well was collected to determine ALB secretion, and the spheroids from each well were used for the cell viability assay. The Cmax information of the drugs is shown in Supplementary Table 3.
(§3) The culture supernatants were collected and stored at −80 °C until use. The supernatant was assayed with a Human Albumin ELISA Kit (PROTEINTECH, KE00076). Assays were performed according to the manufacturer’s instructions.

HepG2 spheroids [3] = assay: Cellular viability (ATP, CellTiter-Glo) in the DILI toxicity test on HepG2 spheroids; assay type: cell-based; conditions: 10*Cmax, end of Day 3 (72 h), individual replicates n = 3, unit from Fig. S4 legend
Experimental: as §1, §2
(§4) CellTiter-Glo (CTG, G9681, PROMEGA) reagent and culture medium were added to each well in a 1:1 ratio. The contents were mixed for 2 min to induce cell lysis. The plate was incubated at room temperature for 10 min to stabilize the luminescent signal. Recording of luminescence was carried out with BioTek Microplate Reader Synergy H1 (Vermont, USA).

[4] = peak serum concentration used as dosing reference; source not given; cited from earlier work
[5] = system: human liver organoids (HLOs); assay: Cellular viability (ATP, CellTiter-Glo) in the DILI toxicity test on human liver organoids; assay type: cell-based; conditions: 10*Cmax; for ATP inhibition, significance vs 0*Cmax: liver organoids, Supplementary Fig. 2, peer review file
Experimental: (§5) All experiments were performed using HLOs derived from a single donor tissue. For each assay, three technical replicates were analyzed, corresponding to three independently cultured wells seeded with organoids. For passage, the following embedding method was used: HLOs were enzymatically or mechanically fragmented (with pre-cold phosphate-buffered saline (PBS)) and reseeded in new Matrigel. Specifically, the pre-cold Matrigel/cell mixture is seeded in 24-well plates at 30 μL/well to enable the formation of dome-shaped structures. Incubation in the cell incubator (37 °C, 5% CO2) for 15 min is required for Matrigel polymerization. After solidification, 500 μL of specific medium is added and later renewed at specific intervals.
as §2, with “Therefore, we used 1*Cmax as a reference for the drug dosage to better approximate the in vivo conditions.” left out, “assay.” for “assay. The Cmax information of the drugs is shown in Supplementary Table 3.”
as §4

[6] = system: human liver organoids (HLOs); assay: ALB secretion (Human Albumin ELISA) in the DILI toxicity test on human liver organoids; assay type: cell-based; conditions: 10*Cmax; for ALB inhibition, significance vs 0*Cmax: liver organoids, Supplementary Fig. 1
Experimental: as §5
as §2, with “Therefore, we used 1*Cmax as a reference for the drug dosage to better approximate the in vivo conditions.” left out, “assay.” for “assay. The Cmax information of the drugs is shown in Supplementary Table 3.”
as §3

[7] = system: human liver organoids (HLOs); assay: Brightfield morphology of dosed human liver organoids; assay type: cell-based; conditions: 10*Cmax
Text: To explore the suitability of liver models with varying levels of complexity for DILI toxicity testing platforms, we established a single-type cell 3D model (HepG2 spheroid) and a multi-type cell 3D model (liver organoid). Specifically, HepG2 spheroids and HLOs were each exposed to 30 compounds with or without hepatotoxicity. The levels of ALB from the supernatant and cellular activity (ATP) from the spheres were further assessed at the end of Day 3 to validate the reliability of the system (Figs. 2b, d, f and 3b, d, f). […] The brightfield images across different time series and different z-axis orientations were collected daily to generate image data for morphological analysis (Supplementary Figs. 5 and 6).
as §2, with “Therefore, we used 1*Cmax as a reference for the drug dosage to better approximate the in vivo conditions.” left out, “assay.” for “assay. The Cmax information of the drugs is shown in Supplementary Table 3.”

Brightfield morphology changes of HLOs ([7]; Day 0 to Day 3, listed as Chlorphenamine) | SMILES | Label section [1] | ALB inhibition (HepG2 spheroids [2]) | ATP inhibition (HepG2 spheroids [3]) | Cmax [4] | ATP inhibition, significance vs 0*Cmax [5] | ALB inhibition, significance vs 0*Cmax [6] | Severity class [1] | DILIrank [1] | ATP inhibition ([5]; human liver organoids, end of Day 3 (72 h), individual replicates n = 3, listed as Chlorphenamine) | DILI level label by DILIrank ([1]; label as worded in text and figure legends) | ALB inhibition ([6]; human liver organoids, end of Day 3 (72 h), individual replicates n = 3, unit from Fig. S1 legend, listed as Chlorphenamine) | Brightfield morphology changes of HLOs ([7]; Day 0 to Day 3)
– | N[C@@H]1[C@H]2CN(c3nc4c(cc3F)c(=O)c(C(=O)O)cn4-c3ccc(F)cc3F)C[C@@H]12 [Trovafloxacin] | Withdrawn | 28% and 76% and 63% | 52% and 58% | 2090 ng/mL | – | – | – | – | – | – | – | –
– | C[C@H]1O[C@@H](O[C@H]2[C@@H](O)C[C@H](O[C@H]3[C@@H](O)C[C@H](O[C@H]4CC[C@@]5(C)[C@H](CC[C@@H]6[C@@H]5C[C@@H](O)[C@]5(C)[C@@H](C7=CC(=O)OC7)CC[C@]65O)C4)O[C@@H]3C)O[C@@H]2C)C[C@H](O)[C@@H]1O [Digoxin] | – | – | – | 2.21 ng/mL | significant | significant | – | – | – | – | – | –
– | CC[C@]1(O)C[C@@H]2CN(CCc3c([nH]c4ccccc34)[C@@](C(=O)OC)(c3cc4c(cc3OC)N(C)[C@H]3[C@@](O)(C(=O)OC)[C@H](OC(C)=O)[C@]5(CC)C=CCN6CC[C@]43[C@@H]65)C2)C1 [Vinblastine] | – | – | – | 28 ng/mL | significant | significant | – | – | – | – | – | –
– | O=P1(N(CCCl)CCCl)NCCCO1 (stereo not drawn) [Cyclophosphamide] | Adverse reactions | 90% and 54% and 78% | 36% and 26% and 38% | 69000 ng/mL | – | – | 5 | vLess-DILI-Concern | – | – | – | –
still grew significantly | CN(C)CCC(c1ccc(Cl)cc1)c1ccccn1 (stereo not drawn) [Chlorpheniramine] | No match | – | – | 140 ng/mL | – | – | 0 | vNo-DILI-Concern | 13% and 9% and -14% | No-DILI | 1% and 9% | still increased in diameter and developed into a typical translucent hollow sphere with clear boundaries
– | COc1cc2ncnc(Nc3ccc(F)c(Cl)c3)c2cc1OCCCN1CCOCC1 [Gefitinib] | – | – | – | 200 ng/mL | – | – | – | – | – | – | – | underwent cell death, failed to maintain their original spherical structure, and disintegrated by the end of Day 3; also recorded: started to undergo significant cell death and structural disintegration
– | NNC(=O)c1ccncc1 [Isoniazid] | Box warning | – | – | 10500 ng/mL | did not show a significant difference | did not show a significant difference | 8 | vMost-DILI-Concern | – | – | – | –
– | C#Cc1cccc(Nc2ncnc3cc(OCCOC)c(OCCOC)cc23)c1 [Erlotinib] | Warnings and precautions | – | – | 1200 ng/mL | – | – | 8 | vMost-DILI-Concern | – | – | – | –
– | Cc1c(C)c2c(c(C)c1O)CCC(C)(COc1ccc(CC3SC(=O)NC3=O)cc1)O2 (stereo not drawn) [Troglitazone] | Withdrawn | – | – | 2820 ng/mL | – | – | 8 | vMost-DILI-Concern | – | – | – | –
– | C[C@]12CCC(=O)C=C1CC[C@@H]1[C@@H]2[C@@H](O)C[C@@]2(C)[C@H]1CC[C@]2(O)C(=O)CO [Hydrocortisone] | No match | -33% and -30% and -26% | -17% and -20% and -30% | 305 ng/mL | – | – | 0 | vNo-DILI-Concern | – | – | – | –
– | CCN(CC)C(=O)/C(C#N)=C/c1cc(O)c(O)c([N+](=O)[O-])c1 [Entacapone] | No match | – | – | 1000 ng/mL | – | – | 0 | vLess-DILI-Concern | – | – | – | –
